Tested on: 62 CA8 (RNA, riboswitch) GGAGACCGAAAGCUGGGGACGACCCCAGAAAGACCAAAAGCUGGGGACGACCCCAGAAAGACCGA
Assay: in-line probing
Conditions: 20 mM MgCl2, 100 mM KCl; 50 mM Tris pH 8.3, room temperature, 48 h; apparent; mean of three replicates; Hill 1.50 ± 0.3

KD: 111 ± 3 µM
Structure (SMILES): N=C(N)N
